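These data come from cells grown in 96-well plates and exposed to compound for 48 hours at five concentrations. GI50: concentration for 50% inhibition of growth.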 Active and inactive are the calls of the source. Rule as the data show it: active = GI50 up to about 1.1 µM and inactive = higher. Bounds are passed on as bounds.

Data on eleven compounds can be found in ChEMBL document CHEMBL1201862, “PubChem BioAssay data set” (2004).

Some test systems named below: Malme-3M; OVCAR-5; NCI-H23; MCF7; NCI/ADR-RES; SW-620; MDA-MB-231; TK-10; OVCAR-3; BT-549; COLO 205; RXF 393; UO-31; HT-29; PC-3; NCI-H522; SN12C; HOP-62; HOP-92; SF-539.
Holding throughout (test): inhibition of tumour cell growth, NCI panel, 48 h

For the compound `O=C1/C(=C/c2cc3c(=O)c4ccccc4sc3s2)NC(=S)N1c1ccccc1`, the GI50 in the assay with Malme-3M, with OVCAR-5, with NCI-H23, in the assay with MCF7, in the assay with NCI/ADR-RES and with SW-620 was > 100 µM (inactive) in each case. Further, the GI50 was 89.9 µM (inactive) in the assay on MDA-MB-231; > 100 µM (inactive) with TK-10; > 100 µM (inactive) in the assay on OVCAR-3; 51.8 µM (inactive) in the assay with BT-549; > 100 µM (inactive) in the assay with COLO 205; 15.4 µM (inactive) in the assay on RXF 393. The GI50 with UO-31 was > 100 µM (inactive); in the assay with HT-29, > 100 µM (inactive); in the assay on PC-3, > 100 µM (inactive); in the assay with NCI-H522, > 100 µM (inactive); in the assay on SN12C, > 100 µM (inactive); in the assay with HOP-62, 5.01 µM (inactive).
Regarding `O=C1NC(Cc2c[nH]c3ccccc23)C(=O)N2C(c3ccccc3)c3[nH]c4ccccc4c3C[C@@H]12` (some centres undefined), the GI50 with Malme-3M is 15 µM (inactive); in the assay with OVCAR-5, 22 µM (inactive); with NCI-H23, 27.7 µM (inactive); in the assay on MCF7, 15.7 µM (inactive); in the assay on NCI/ADR-RES it was 21.6 µM (inactive); in the assay with SW-620 it was 31.9 µM (inactive). The GI50 was 20.6 µM (inactive) in the assay on MDA-MB-231; 25.1 µM (inactive) with HOP-92; 26.9 µM (inactive) with TK-10; 15.5 µM (inactive) with OVCAR-3; 21.1 µM (inactive) in the assay on BT-549; 21.1 µM (inactive) with COLO 205. For the same compound, the GI50 was 16 µM (inactive) in the assay on RXF 393; 23.5 µM (inactive) in the assay with UO-31; 22.1 µM (inactive) with HT-29; 18.7 µM (inactive) in the assay on PC-3; 18.1 µM (inactive) with NCI-H522; 16.4 µM (inactive) in the assay on SN12C. The GI50 in the assay with HOP-62 is 17.2 µM (inactive).
`COC(=O)c1ccccc1C#CC#Cc1ccccc1C(=O)OC`: the GI50 was 6.79 µM (inactive) in the assay on Malme-3M; > 10 µM (inactive) in the assay on OVCAR-5; > 10 µM (inactive) in the assay on NCI-H23; 0.611 µM (active) in the assay on MCF7; > 10 µM (inactive) in the assay with NCI/ADR-RES; > 10 µM (inactive) in the assay on SW-620. Further, the GI50 was > 10 µM (inactive) in the assay with MDA-MB-231; > 10 µM (inactive) in the assay with TK-10; 2.55 µM (inactive) with OVCAR-3; > 10 µM (inactive) with BT-549; 1.69 µM (inactive) in the assay with COLO 205; > 10 µM (inactive) with RXF 393. The GI50 in the assay with UO-31 was > 10 µM (inactive); in the assay on HT-29, 6.4 µM (inactive); in the assay with PC-3 it was 9.06 µM (inactive); with NCI-H522, > 10 µM (inactive); in the assay with SN12C, > 10 µM (inactive); in the assay with HOP-62, > 10 µM (inactive). The GI50 with SF-539 was > 10 µM (inactive).
Regarding `CCN(CCN(CC)C(=O)Nc1ccccc1)C(=O)Nc1ccccc1`, the GI50 with Malme-3M, in the assay on OVCAR-5, with NCI-H23, with MCF7, in the assay on NCI/ADR-RES and in the assay on SW-620 was > 100 µM (inactive) throughout. Further, the GI50 with MDA-MB-231, in the assay with HOP-92, in the assay on TK-10, in the assay on BT-549, in the assay on COLO 205 and in the assay on RXF 393 was > 100 µM (inactive) throughout. For the same compound, the GI50 in the assay on UO-31, with HT-29, in the assay on PC-3, in the assay on NCI-H522, in the assay on SN12C and in the assay on HOP-62 was > 100 µM (inactive) each time.
`COc1ccc(N2C(=O)CC(=O)N(C(=O)COc3ccc(OCC(=O)N4C(=O)CC(=O)N(c5ccc(OC)cc5)C4=S)cc3)C2=S)cc1`: the GI50 in the assay on Malme-3M is 68.2 µM (inactive); in the assay on OVCAR-5 it was > 100 µM (inactive); with NCI-H23, 38.1 µM (inactive); in the assay on MCF7 it was 31.1 µM (inactive); in the assay with NCI/ADR-RES, 66.4 µM (inactive); with SW-620 it was 40.1 µM (inactive). The GI50 in the assay on MDA-MB-231 is 30.3 µM (inactive); in the assay with HOP-92 it was 40.9 µM (inactive); in the assay with TK-10, 44.3 µM (inactive); with BT-549 it was 50.1 µM (inactive); in the assay with COLO 205, 18.9 µM (inactive); with RXF 393 it was 23.7 µM (inactive). The GI50 with UO-31 was 42.5 µM (inactive); with HT-29 it was 47.8 µM (inactive); in the assay on PC-3 it was 41 µM (inactive); in the assay on NCI-H522, 35.5 µM (inactive); in the assay on SN12C it was 43.3 µM (inactive).
With `C=C1CC(C)(COc2ccc3c(C)c(Cl)c(=O)oc3c2)OC1=O` (centres undefined), the GI50 in the assay on Malme-3M was 1.9 µM (inactive); in the assay on OVCAR-5 it was 4.23 µM (inactive); in the assay on NCI-H23, 1.21 µM (inactive); in the assay with MCF7 it was 1.24 µM (inactive); in the assay on NCI/ADR-RES, 2.35 µM (inactive); with SW-620, 0.461 µM (active). Also, the GI50 with MDA-MB-231 was 3.53 µM (inactive); in the assay with HOP-92 it was 1.06 µM (active); with TK-10, 0.942 µM (active); in the assay on OVCAR-3 it was 2.89 µM (inactive); in the assay with BT-549 it was 1.31 µM (inactive); in the assay with COLO 205, 0.729 µM (active). Further, the GI50 is 3.34 µM (inactive) in the assay on UO-31; 0.984 µM (active) in the assay on HT-29; 2.52 µM (inactive) in the assay on PC-3; 0.632 µM (active) in the assay with NCI-H522; 5.07 µM (inactive) with SN12C; 10.3 µM (inactive) in the assay with HOP-62. The GI50 in the assay on SF-539 is 3.61 µM (inactive).
Turning to `COC1O[C@H]2[C@H]3[C@@H]1[C@@H](OS(=O)(=O)c1ccc(C)cc1)C(=O)N3C[C@H]2O` (some centres undefined), the GI50 in the assay on Malme-3M, in the assay on OVCAR-5, in the assay on NCI-H23, in the assay on MCF7, in the assay with NCI/ADR-RES and in the assay on SW-620 was > 100 µM (inactive) in each case. The GI50 was > 100 µM (inactive) with MDA-MB-231; > 100 µM (inactive) in the assay with TK-10; > 100 µM (inactive) in the assay with OVCAR-3; > 100 µM (inactive) in the assay on BT-549; > 100 µM (inactive) with COLO 205; 17.9 µM (inactive) in the assay on RXF 393. Further, the GI50 in the assay with UO-31 was > 100 µM (inactive); in the assay with HT-29 it was > 100 µM (inactive); in the assay with PC-3, 81.8 µM (inactive); with HOP-62, > 100 µM (inactive); in the assay with SF-539, > 100 µM (inactive).
As for `COc1cc(C2c3cc4c(cc3OC(C)(O)C2C)OCO4)cc(OC)c1OC` (centres undefined), the GI50 in the assay on Malme-3M is 0.407 µM (active); with OVCAR-5 it was > 100 µM (inactive); in the assay with NCI-H23 it was 0.745 µM (active); in the assay on MCF7, 0.375 µM (active); in the assay with NCI/ADR-RES, 0.316 µM (active); with SW-620, 0.349 µM (active). For the same compound, the GI50 in the assay with MDA-MB-231 is 0.433 µM (active); in the assay on OVCAR-3, 0.316 µM (active); in the assay with BT-549, 5.42 µM (inactive); in the assay with COLO 205, 0.49 µM (active); with RXF 393, 0.211 µM (active); in the assay on UO-31, 0.857 µM (active). For the same compound, the GI50 in the assay with HT-29 was 0.344 µM (active); in the assay with PC-3, 0.306 µM (active); in the assay on NCI-H522, 0.235 µM (active); with SN12C it was 0.505 µM (active); in the assay on HOP-62 it was 0.335 µM (active); in the assay with SF-539 it was 0.277 µM (active).
For the compound `C/C(=C\c1ccccn1)c1ccccn1`, the GI50 in the assay with Malme-3M, with OVCAR-5, in the assay on NCI-H23, in the assay with MCF7, in the assay with NCI/ADR-RES and with MDA-MB-231 was > 100 µM (inactive) each time. The GI50 in the assay with HOP-92, in the assay with TK-10, with OVCAR-3, in the assay on BT-549, in the assay on COLO 205 and in the assay on RXF 393 was > 100 µM (inactive) throughout. Moreover, the GI50 with UO-31, with HT-29, in the assay on PC-3, in the assay with NCI-H522 and with HOP-62 was > 100 µM (inactive) each time.
Regarding `C[C@@H](NC(=O)[C@@H]1C[C@]1(C)CO)c1cccc2ccccc12`, the GI50 in the assay with Malme-3M, in the assay on OVCAR-5, with NCI-H23, in the assay with MCF7, in the assay on NCI/ADR-RES and in the assay with SW-620 was > 100 µM (inactive) throughout. For the same compound, the GI50 in the assay with MDA-MB-231, in the assay with HOP-92, with TK-10, in the assay on OVCAR-3, in the assay on BT-549 and in the assay on COLO 205 was > 100 µM (inactive) in each case. For the same compound, the GI50 in the assay with RXF 393, in the assay with UO-31, in the assay on HT-29, with PC-3, in the assay on SN12C and in the assay with HOP-62 was > 100 µM (inactive) in each case.
With `Cc1cc(O)c2c(c1)C(=O)C=C(Br)C2=O`, the GI50 with Malme-3M is 7.69 µM (inactive); in the assay on OVCAR-5, 16.1 µM (inactive); in the assay on NCI-H23, 17.1 µM (inactive); with MCF7, 7.82 µM (inactive); in the assay with NCI/ADR-RES, 19.2 µM (inactive); in the assay on SW-620 it was 3.42 µM (inactive). For the same compound, the GI50 with MDA-MB-231 was 16.9 µM (inactive); in the assay with HOP-92, 13.8 µM (inactive); in the assay on TK-10, 16.4 µM (inactive); in the assay on OVCAR-3, 16.7 µM (inactive); with BT-549, 16.9 µM (inactive); with COLO 205, 6.32 µM (inactive). For the same compound, the GI50 in the assay with UO-31 is 15.5 µM (inactive); with HT-29, 21.1 µM (inactive); in the assay on PC-3, 17.8 µM (inactive); with NCI-H522, 2.94 µM (inactive); in the assay with SN12C, 16.4 µM (inactive); in the assay with HOP-62, > 63.5 µM (inactive). Moreover, in the assay with SF-539, the GI50 was 16 µM (inactive).
